PubChem BioAssay AID1963428 (Molecular Pharmacology Branch, DTP, NCI, 2024)

Test system: 171881-019-R-J1-PDC complex spheroid growth, % test/control
Assay: Anticancer human tumor 171881-019-R-J1-PDC patient-derived invasive breast carcinoma cell line growth inhibition [Asc]
Settings: for IC50: curve of first compound; for viability, T/C: stronger effect = lower value
In short: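 Complex spheroids combining tumor cells with HUVEC endothelial cells and human MSCs, at 37 degrees C, 5% CO2; agents tested alone or combined, half-log dilutions from at or near clinical Cmax, or 10 microM if Cmax unknown.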

[1] = second compound 0.01 µM, first compound 0.00316 µM
[2] = second compound 0.01 µM, first compound 0.01 µM
[3] = second compound 0.01 µM, first compound 0.0316 µM
[4] = second compound 0.01 µM, first compound 0.1 µM
[5] = second compound 0.01 µM, first compound 0.316 µM
[6] = second compound 0.01 µM, first compound 1 µM
[7] = second compound 0.0316 µM, first compound 0.00316 µM
[8] = second compound 0.0316 µM, first compound 0.01 µM
[9] = second compound 0.0316 µM, first compound 0.0316 µM
[10] = second compound 0.0316 µM, first compound 0.1 µM
[11] = second compound 0.0316 µM, first compound 0.316 µM
[12] = second compound 0.0316 µM, first compound 1 µM
[13] = second compound 0.1 µM, first compound 0.00316 µM
[14] = second compound 0.1 µM, first compound 0.01 µM
[15] = second compound 0.1 µM, first compound 0.0316 µM
[16] = second compound 0.1 µM, first compound 0.1 µM
[17] = second compound 0.1 µM, first compound 0.316 µM
[18] = second compound 0.1 µM, first compound 1 µM
[19] = second compound 0.316 µM, first compound 0.00316 µM
[20] = second compound 0.316 µM, first compound 0.01 µM
[21] = second compound 0.316 µM, first compound 0.0316 µM
[22] = second compound 0.316 µM, first compound 0.1 µM
[23] = second compound 0.316 µM, first compound 0.316 µM
[24] = second compound 0.316 µM, first compound 1 µM
[25] = second compound 1 µM, first compound 0.00316 µM
[26] = second compound 1 µM, first compound 0.01 µM
[27] = second compound 1 µM, first compound 0.0316 µM
[28] = second compound 1 µM, first compound 0.1 µM
[29] = second compound 1 µM, first compound 0.316 µM
[30] = second compound 1 µM, first compound 1 µM
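Throughout, for viability, T/C: spheroids exposed to compounds for 7 days.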

## CCN1CCN(Cc2ccc(Nc3ncc(F)c(-c4cc(F)c5nc(C)n(C(C)C)c5c4)n3)nc2)CC1 + CNC(C)C(=O)NC1CN(S(=O)(=O)c2cccc(S(=O)(=O)N3CCC4CCC(C(=O)NC(c5ccccc5)c5ccccc5)N4C(=O)C(NC(=O)C(C)NC)C3)c2)CCC2CCC(C(=O)NC(c3ccccc3)c3ccccc3)N2C1=O
Second compound 0.01 µM
  IC50: > 1000 nM
Second compound 0.0316 µM
  IC50: > 1000 nM
Second compound 0.1 µM
  IC50: > 1000 nM
Second compound 0.316 µM
  IC50: > 1000 nM
Second compound 1 µM
  IC50: > 1000 nM
[1]
  viability, T/C: 94.1%
[2]
  viability, T/C: 102%
[3]
  viability, T/C: 102%
[4]
  viability, T/C: 113%
[5]
  viability, T/C: 131%
[6]
  viability, T/C: 147%
[7]
  viability, T/C: 89.7%
[8]
  viability, T/C: 97.9%
[9]
  viability, T/C: 112%
[10]
  viability, T/C: 124%
[11]
  viability, T/C: 149%
[12]
  viability, T/C: 143%
[13]
  viability, T/C: 112%
[14]
  viability, T/C: 107%
[15]
  viability, T/C: 117%
[16]
  viability, T/C: 128%
[17]
  viability, T/C: 143%
[18]
  viability, T/C: 174%
[19]
  viability, T/C: 101%
[20]
  viability, T/C: 110%
[21]
  viability, T/C: 121%
[22]
  viability, T/C: 130%
[23]
  viability, T/C: 142%
[24]
  viability, T/C: 143%
[25]
  viability, T/C: 89.7%
[26]
  viability, T/C: 110%
[27]
  viability, T/C: 117%
[28]
  viability, T/C: 139%
[29]
  viability, T/C: 131%
[30]
  viability, T/C: 146%

## COc1c(OCCCN2CCOCC2)ccc2c3n(c(=NC(=O)c4cnc(N)nc4)nc12)CCN3 + CNC(C)C(=O)NC1CN(S(=O)(=O)c2cccc(S(=O)(=O)N3CCC4CCC(C(=O)NC(c5ccccc5)c5ccccc5)N4C(=O)C(NC(=O)C(C)NC)C3)c2)CCC2CCC(C(=O)NC(c3ccccc3)c3ccccc3)N2C1=O
Second compound 0.01 µM
  IC50: 32.4 nM
Second compound 0.0316 µM
  IC50: 30.8 nM
Second compound 0.1 µM
  IC50: 29.6 nM
Second compound 0.316 µM
  IC50: 28.1 nM
Second compound 1 µM
  IC50: 28.7 nM
[1]
  viability, T/C: 196%
[2]
  viability, T/C: 133%
[3]
  viability, T/C: 49.7%
[4]
  viability, T/C: 15.9%
[5]
  viability, T/C: 4.61%
[6]
  viability, T/C: 2.61%
[7]
  viability, T/C: 215%
[8]
  viability, T/C: 137%
[9]
  viability, T/C: 46.5%
[10]
  viability, T/C: 15.6%
[11]
  viability, T/C: 4.08%
[12]
  viability, T/C: 1.97%
[13]
  viability, T/C: 203%
[14]
  viability, T/C: 135%
[15]
  viability, T/C: 43.8%
[16]
  viability, T/C: 13.1%
[17]
  viability, T/C: 3.67%
[18]
  viability, T/C: 2.63%
[19]
  viability, T/C: 182%
[20]
  viability, T/C: 122%
[21]
  viability, T/C: 41%
[22]
  viability, T/C: 11.9%
[23]
  viability, T/C: 3.14%
[24]
  viability, T/C: 1.94%
[25]
  viability, T/C: 210%
[26]
  viability, T/C: 125%
[27]
  viability, T/C: 43.8%
[28]
  viability, T/C: 10.4%
[29]
  viability, T/C: 3.22%
[30]
  viability, T/C: 2.13%

## NC(=O)C(=Cn1cnc(-c2cc(C(F)(F)F)cc(C(F)(F)F)c2)n1)c1cncnc1 + CNC(C)C(=O)NC1CN(S(=O)(=O)c2cccc(S(=O)(=O)N3CCC4CCC(C(=O)NC(c5ccccc5)c5ccccc5)N4C(=O)C(NC(=O)C(C)NC)C3)c2)CCC2CCC(C(=O)NC(c3ccccc3)c3ccccc3)N2C1=O
Second compound 0.01 µM
  IC50: 63 nM
Second compound 0.0316 µM
  IC50: 66.3 nM
Second compound 0.1 µM
  IC50: 61.9 nM
Second compound 0.316 µM
  IC50: 58.6 nM
Second compound 1 µM
  IC50: 61.6 nM
Second compound 0.01 µM, first compound 0.000949 µM
  viability, T/C: 118%
Second compound 0.01 µM, first compound 0.003 µM
  viability, T/C: 101%
Second compound 0.01 µM, first compound 0.00949 µM
  viability, T/C: 139%
Second compound 0.01 µM, first compound 0.03 µM
  viability, T/C: 109%
Second compound 0.01 µM, first compound 0.0949 µM
  viability, T/C: 17.5%
Second compound 0.01 µM, first compound 0.3 µM
  viability, T/C: 5.02%
Second compound 0.0316 µM, first compound 0.000949 µM
  viability, T/C: 109%
Second compound 0.0316 µM, first compound 0.003 µM
  viability, T/C: 111%
Second compound 0.0316 µM, first compound 0.00949 µM
  viability, T/C: 149%
Second compound 0.0316 µM, first compound 0.03 µM
  viability, T/C: 104%
Second compound 0.0316 µM, first compound 0.0949 µM
  viability, T/C: 17.8%
Second compound 0.0316 µM, first compound 0.3 µM
  viability, T/C: 5.09%
Second compound 0.1 µM, first compound 0.000949 µM
  viability, T/C: 97.9%
Second compound 0.1 µM, first compound 0.003 µM
  viability, T/C: 109%
Second compound 0.1 µM, first compound 0.00949 µM
  viability, T/C: 145%
Second compound 0.1 µM, first compound 0.03 µM
  viability, T/C: 111%
Second compound 0.1 µM, first compound 0.0949 µM
  viability, T/C: 14.1%
Second compound 0.1 µM, first compound 0.3 µM
  viability, T/C: 4.5%
Second compound 0.316 µM, first compound 0.000949 µM
  viability, T/C: 118%
Second compound 0.316 µM, first compound 0.003 µM
  viability, T/C: 108%
Second compound 0.316 µM, first compound 0.00949 µM
  viability, T/C: 149%
Second compound 0.316 µM, first compound 0.03 µM
  viability, T/C: 98.7%
Second compound 0.316 µM, first compound 0.0949 µM
  viability, T/C: 15.8%
Second compound 0.316 µM, first compound 0.3 µM
  viability, T/C: 4.13%
Second compound 1 µM, first compound 0.000949 µM
  viability, T/C: 110%
Second compound 1 µM, first compound 0.003 µM
  viability, T/C: 108%
Second compound 1 µM, first compound 0.00949 µM
  viability, T/C: 166%
Second compound 1 µM, first compound 0.03 µM
  viability, T/C: 108%
Second compound 1 µM, first compound 0.0949 µM
  viability, T/C: 15.6%
Second compound 1 µM, first compound 0.3 µM
  viability, T/C: 3.79%

## NC1CCC(NC2CC2c2ccccc2)CC1 (stereo not given) + CNC(C)C(=O)NC1CN(S(=O)(=O)c2cccc(S(=O)(=O)N3CCC4CCC(C(=O)NC(c5ccccc5)c5ccccc5)N4C(=O)C(NC(=O)C(C)NC)C3)c2)CCC2CCC(C(=O)NC(c3ccccc3)c3ccccc3)N2C1=O
Second compound 0.01 µM
  IC50: > 100 nM
Second compound 0.0316 µM
  IC50: > 100 nM
Second compound 0.1 µM
  IC50: > 100 nM
Second compound 0.316 µM
  IC50: > 100 nM
Second compound 1 µM
  IC50: > 100 nM
Second compound 0.01 µM, first compound 0.000316 µM
  viability, T/C: 94.2%
Second compound 0.01 µM, first compound 0.001 µM
  viability, T/C: 86.1%
[1]
  viability, T/C: 82.1%
[2]
  viability, T/C: 87.2%
[3]
  viability, T/C: 83.9%
[4]
  viability, T/C: 81%
Second compound 0.0316 µM, first compound 0.000316 µM
  viability, T/C: 89.9%
Second compound 0.0316 µM, first compound 0.001 µM
  viability, T/C: 91.5%
[7]
  viability, T/C: 100%
[8]
  viability, T/C: 84.9%
[9]
  viability, T/C: 79.5%
[10]
  viability, T/C: 79.9%
Second compound 0.1 µM, first compound 0.000316 µM
  viability, T/C: 103%
Second compound 0.1 µM, first compound 0.001 µM
  viability, T/C: 103%
[13]
  viability, T/C: 85.4%
[14]
  viability, T/C: 79.1%
[15]
  viability, T/C: 91.8%
[16]
  viability, T/C: 91.8%
Second compound 0.316 µM, first compound 0.000316 µM
  viability, T/C: 90.4%
Second compound 0.316 µM, first compound 0.001 µM
  viability, T/C: 86.9%
[19]
  viability, T/C: 84.2%
[20]
  viability, T/C: 95.9%
[21]
  viability, T/C: 85.3%
[22]
  viability, T/C: 81.2%
Second compound 1 µM, first compound 0.000316 µM
  viability, T/C: 91.5%
Second compound 1 µM, first compound 0.001 µM
  viability, T/C: 96.6%
[25]
  viability, T/C: 87.9%
[26]
  viability, T/C: 85.2%
[27]
  viability, T/C: 92.8%
[28]
  viability, T/C: 86%
